EP4759810A1, “PROTAC TARGETING BCL-XL PROTEIN AND USE THEREOF” (BEIJING SUNCELL BIO-MEDICAL CO., LTD., priority 2023, dated 2025)

How the values were obtained:
[1] = Metabolic stability assay in liver microsomes (human); type: in vitro ADME
Procedure: (§1) The metabolic reaction of compounds in liver microsome was performed in a system with a total volume of 400 µL, and the following steps below were sequentially performed for the reaction and detection: 1) 200 µL of phosphate buffer (200 mM), 106 µL of sterile ultrapure water, and 40 µL of magnesium chloride solution (50 mM) were added to each detection tube to prepare a reaction working solution. 2) Two reaction systems with or without adding NADPH were prepared for each compound to be tested. For the reaction system with adding NADPH: 10 µL of liver microsomes (20 mg/mL) and 40 µL of NADPH (10 mM) were added to the above working solution; for the reaction system without adding NADPH: 10 µL of liver microsomes (20 mg/mL) and 40 µL of sterile ultrapure water were added to the above working solution. The final concentration of liver microsomes in both reaction systems was 0.5 mg/mL. 3) 4 µL of the compound to be tested ([…]) was added to each reaction tube, resulting in a final concentration of 1 µM for the compound in the reaction system. The detection tubes were placed at 37°C for reaction. 4) 50 µL samples were taken from each detection tube at 0, 15, 30, 45, and 60 minutes after adding the compound. The reaction was terminated by adding cold acetonitrile containing IS (100 nM alprazolam, 200 nM labetalol, 200 nM caffeine, and 2 µM ketoprofen) in a 4× volume. The samples were centrifuged at 3220 g for 40 minutes, 100 µL of the supernatant was mixed with 100 µL of ultrapure water, and a sample was taken for LC-MS/MS analysis.
(§2) Calculation of in vitro liver microsomal metabolic half-life and in vitro metabolic intrinsic clearance rate: The LC-MS detection results were analyzed to obtain the percentage of the remaining amount of the tested compound relative to the initial amount at each time point. The natural logarithm of the remaining percentage was linearly fitted against the incubation time.

[2] = system: HEF cells; assay: Senescent cell killing activity test, HEF cell model (CCK-8); type: cell-based, human; details: for activity for killing senescent cells at lower concentrations compared to A-1331852: HEF cell model, 0.01 µM and 0.03 µM; for killing senescent HEF cells: etoposide-induced senescent vs normal HEF cells, Figures 3A-3F; for toxicity on normal non-senescent HEF cells: higher concentration (25 µM)
[3] = Metabolic stability assay in liver microsomes (mouse); type: in vitro ADME
Procedure: as §1, §2

[4] = system: MRC5 cells; assay: Senescent cell killing activity test, MRC5 cell model (CCK-8); type: cell-based, human
Procedure: (§3) To avoid replication of the induced senescent cells, low-passage proliferating HEF cells (<10 passages), MRC5 cells (<6 passages), and BJ cells (<10 passages) were used as normal controls. For chemical drug induced senescence, HEF cells were treated with 10 µM etoposide (Selleck, S1225) for 36-48 hours, MRC5 cells were treated with 5 µM bleomycin (Selleck, S1225) for 72 hours, and BJ cells were treated with 10 µg/mL bleomycin for 72 hours. Three days after the treatment, the cells were subcultured in fresh culture medium at a 1:3 ratio for 72 hours before further analysis and use.
(§4) Non-senescent and induced-senescent HEF cells, non-senescent and induced-senescent MRC5 cells, and non-senescent and induced-senescent BJ cells were respectively digested with trypsin, and centrifuged at 1000 rpm for 5 minutes. Then, the supernatant was removed, and the cells were resuspended in fresh DMEM culture medium containing 10% fetal bovine serum for counting. The cell density was adjusted so that the non-senescent cell density was 4000 cells/100 µL and the senescent cell density was 7000 cells/100 µL. 100 µL of the cell suspension was added to each well of a 96-well transparent cell culture plate. It was noted that the edge wells of the 96-well plate were not used as testing wells, and 300 µL of PBS alone was added to these wells to reduce evaporation of the culture medium. The 96-well plates with the well-plated cells were placed back in a 37°C incubator for overnight culture until the cells adhered. On the next day, the small molecule compounds to be tested were prepared and added after the cells had adhered.
(§5) A series of small molecule concentration gradients (0.01, 0.03, 0.1, 0.3, 1, 3, 10, and 25 µM) were pre-set, and a series of 2× drug dilutions for the above concentrations were prepared in DMEM culture medium containing 10% fetal bovine serum. 100 µL of the above DMEM culture medium containing the gradient concentrations of the drug was added to each well of the 96-well plate that had been well-plated with cells, so that the final drug concentration in each well was the pre-set series of concentrations. Three replicate wells were used for each test drug concentration. The 96-well plates were placed back in a 37°C incubator, and cell viability was measured after three days.
(§6) Three days after adding the drug, the plates were taken out, and the supernatant was discarded. 100 µL of pre-prepared CCK-8 working solution was added to each well. The CCK-8 working solution was obtained through diluting a CCK-8 stock solution (C0041, Beyotime) with a serum-free DMEM culture medium by 10-fold volumn. The 96-well plates containing the CCK-8 working solution were placed back in the 37°C incubator and incubated for 0.5-2 hours. The plates were then taken out, and the absorbance value (OD value) of each well was measured at a wavelength of 450 nm. The cell viability in each experimental group was calculated according to the following formula: Relative cell viability (%) = (Blank control group - Experimental group) / Blank control group × 100%.

[5] = system: BJ cells; assay: Senescent cell killing activity test, BJ cell model (CCK-8); type: cell-based, human; details: Figures 3M-3O
Procedure: as §3, §4, §5, §6

[6] = human liver microsomes 0.5 mg/mL, 1 µM compound, 37°C
[7] = mouse liver microsomes 0.5 mg/mL, 1 µM compound, 37°C

Row | SMILES | Clint [1, 6] | half-life at 1 µM [1, 6] | microsomal CLint at 1 µM ([1]; human liver microsomes, read-out: clearance rate (metabolic clearance rate)) | activity for killing senescent cells at lower concentrations compared to A-1331852 [2] | killing senescent HEF cells [2] | toxicity on normal non-senescent HEF cells [2] | Clint [3, 7] | half-life at 1 µM [3, 7] | microsomal CLint at 1 µM ([3]; mouse liver microsomes, read-out: clearance rate (metabolic clearance rate)) | activity for killing senescent cells at lower concentrations compared to A-1331852 ([4]; 0.01 µM and 0.03 µM) | selectivity for senescent cells ([4]; Figures 3G-3L) | killing effects for senescent cells ([5]; bleomycin-induced senescent skin-derived BJ cell model) | killing effect for the normal early-passage BJ cells ([5]; normal BJ cells)
1 | O=C1CCC(N2C(=O)c3cccc(NCCN4CCC(CN5CCN(CC#Cc6ccc(OCCCc7ccc(N8CCc9cccc(C(=O)Nc%10nc%11ccccc%11s%10)c9C8)nc7C(=O)O)c(F)c6)CC5)CC4)c3C2=O)C(=O)N1 (stereo not shown) [APQ2] | 2.77 µL/min/mg protein | 8.34 h | 2.77 µL/min/mg | better activity for killing senescent cells at lower concentrations | efficiently and selectively kill senescent HEF cells | no toxicity on normal non-senescent HEF cells | 4.30 µL/min/mg protein | 5.37 h | 4.3 µL/min/mg |  |  |  | 
2 | O=C1CCN(c2ccc(N3CCC(CN4CCN(CC#Cc5ccc(OCCCc6ccc(N7CCc8cccc(C(=O)Nc9nc%10ccccc%10s9)c8C7)nc6C(=O)O)c(F)c5)CC4)CC3)cc2)C(=O)N1 [APQ10] |  |  |  | better activity for killing senescent cells at lower concentrations | efficiently and selectively kill senescent HEF cells | no toxicity on normal non-senescent HEF cells |  |  |  | superior to that of A-1331852 | better selectivity for senescent cells | highly selective and potent killing effects for senescent cells | without significant killing effect for the normal early-passage BJ cells
